“Also recorded” adds a separate entry of the source. Like-named read-outs stand apart in the source and are kept apart here.

Consider five compounds from patent US11844794B2, “Pharmaceutical compositions” (ADEPTIO PHARMACEUTICALS LIMITED, priority 2017, dated 2023).

The test system of data set [1] is Tardive Dyskinesia sufferers. The conditions noted are these: Valbenazine 80 mg/day; cited from earlier work.
Data set [2] concerns patients suffering from tardive dyskinesia. The following applies: cited from earlier work.
A short description of data set [3]: thermal gravimetric analysis (TGA) / thermal stability. The conditions noted are these: for TGA weight loss: 30-300° C. at 10° C./minute.
Experimental: Differential scanning calorimetry (DSC) was carried out on the sample “as is” using a Mettler DSC1 instrument. The sample was weighed I an aluminium pan, covered with a pierced lid, and then crimped and analysed from 30-300° C. at 10° C./minute.
Thermal gravimetric analysis was performed on the sample “as is” using a Mettler 851^e TGA instrument. The sample was weighed in an alumina crucible and analysed from 30-300° C. at 10° C./minute.
Data set [4] can be described thus: equilibrium aqueous solubility by HPLC. The class given is physicochemical. As for the experimental part:
The aqueous solubilities of salts were measured by an equilibrium method in which an amount of the salt was weighed into a 2 ml vial equipped with a magnetic stirrer bar and water added. In cases where complete dissolution was observed, more material was added until the sample was exhausted. The slurry was then stirred for seven days before isolating the solids by centrifuge-filtration. The solids were analysed by XRPD and the filtrates were analysed by HPLC to determine the amount of (+)-alpha-dihydrotetrabenazine salt in solution. The solubilities were calculated against a calibration curve established for a (+)-alpha-dihydrotetrabenazine sample of known concentration.

Data set [5] is described as follows: solid form stability in slurry / polymorphism by XRPD. Type of data set: physicochemical. The conditions noted are these: for crystalline form after stirring in slurry (XRPD): one week.
The next data set deals with amphetamine-induced rats. The experiment in a line: amphetamine-induced locomotor activity, open field test. Type of data set: in vivo, rat. The conditions noted are these: male CD rats. As for the experimental part: (§1) All animal experiments were carried out according to the National Institute of Health (NIH) guidelines for the care and use of laboratory animals, and approved by the National Animal Experiment Board, Finland. Male CD (Charles River Laboratories, Germany) at weight range of 200-250 g (165-200 g upon arrival) were used for the experiments. Animals were housed at a standard temperature (22±1° C.) and in a light-controlled environment (lights on from 7 am to 8 pm) with ad libitum access to food and water.
(§2) Locomotor activity of the rats was tested in open field arena. The open field test was performed during the rat light cycle and under a normal lighting evenly distributed to the test chambers. The paths of the rats were recorded by activity monitor (Med. Associates Inc.).
(§3) Dosing the vehicle, vehicle-amphetamine, (+)-α-DHTBZ or risperidone was done prior to LMA test. The rats were placed in the centre of the arena, and the path was recorded for 60 minutes.
Animals were grouped as follows: • Group 1: 10 rats treated with Vehicle (t=0 min) and Vehicle (t=30 min) • Group 2: 10 rats treated with Vehicle (t=0 min) and Amphetamine (t=30 min) • Group 3: 10 rats treated with (+)-α-DHTBZ 0.5 mg/kg (t=0 min) and Amphetamine (t=30 min) • Group 4: 10 rats treated with (+)-α-DHTBZ 1 mg/kg (t=0 min) and Amphetamine (t=30 min) • Group 5: 10 rats treated with (+)-α-DHTBZ 1.5 mg/kg (t=0 min) and Amphetamine (t=30 min) • Group 6: 10 rats treated with (+)-α-DHTBZ 2 mg/kg (t=0 min) and Amphetamine (t=30 min) • Group 7: 10 rats treated with risperidone 1 mg/kg (t=0 min) and Amphetamine (t=30 min)
Rats dosed with either vehicle, (+)-α-DHTBZ 0.5 mg/kg, (+)-α-DHTBZ 1 mg/kg, (+)-α-DHTBZ 1.5 mg/kg, (+)-α-DHTBZ 2 mg/kg or Risperidone 1 mg/kg were subjected to LMA testing first for 30 min and then for 60 minutes after vehicle or amphetamine challenge. Resulting locomotor activity was evaluated in 3 min bins and as a total over the testing period.
Rats dosed with either vehicle, (+)-α-DHTBZ 0.5 mg/kg, (+)-α-DHTBZ 1 mg/kg, (+)-α-DHTBZ 1.5 mg/kg, (+)-α-DHTBZ 2 mg/kg or Risperidone 1 mg/kg were subjected to LMA testing first for 30 min and then for 60 minutes after vehicle or amphetamine challenge. Resulting stereotypic activity was evaluated in 3 min bins and as a total over the testing period. […]

The test system of data set [6] is non-amphetamine induced rats. The data set can be described thus: locomotor activity in rats without amphetamine induction, open field test. The class given is in vivo, rat. The following applies: Study 3, non-induced rats, 1 mg/kg. As to the method:
as §1, §2, §3
Animals were grouped as follows: • Group 1: 10 rats treated with Vehicle • Group 2: 10 rats treated with (+)-α-DHTBZ 2.5 mg/kg • Group 3: 10 rats treated with (+)-α-DHTBZ 5 mg/kg • Group 4: 10 rats treated with risperidone 1 mg/kg

Data set [7] deals with Chromaffin Granule Monoamine Transporter (Bos taurus, UniProt Q27963). The conditions noted are these: racemic α versus racemic β, in vitro; cited from earlier work.
Sequence of Chromaffin Granule Monoamine Transporter (Q27963 whole entry): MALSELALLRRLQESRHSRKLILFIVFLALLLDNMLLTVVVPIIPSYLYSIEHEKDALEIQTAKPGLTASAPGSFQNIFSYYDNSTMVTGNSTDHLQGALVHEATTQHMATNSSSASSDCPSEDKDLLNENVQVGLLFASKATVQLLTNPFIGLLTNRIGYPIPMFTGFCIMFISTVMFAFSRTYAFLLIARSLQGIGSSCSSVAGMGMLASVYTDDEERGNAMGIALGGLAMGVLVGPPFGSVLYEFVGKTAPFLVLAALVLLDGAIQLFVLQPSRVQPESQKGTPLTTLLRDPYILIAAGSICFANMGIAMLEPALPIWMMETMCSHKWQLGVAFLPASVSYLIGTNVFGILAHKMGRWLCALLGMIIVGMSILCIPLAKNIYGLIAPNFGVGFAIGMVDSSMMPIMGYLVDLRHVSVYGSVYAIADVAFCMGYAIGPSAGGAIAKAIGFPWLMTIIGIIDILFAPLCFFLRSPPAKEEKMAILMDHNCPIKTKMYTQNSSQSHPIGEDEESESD
Data set [8] in a line: moisture-sorption analysis. Type of data set: physicochemical. The conditions noted are these: for moisture uptake: 25° C. As to the method: Moisture-sorption analysis was carried out using a Hiden IGA Sorp moisture-sorption analyser. […] The sample was then subjected to an isothermal (at 25° C.) adsorption scan from 40 to 90% relative humidity in steps of 10%. The sample was allowed to equilibrate to an asymptotic weight at each point for a maximum of four hours. […] An adsorption scan was then performed from 0 to 40% relative humidity inn steps of 10%. The sample was dried for two hours at 60° C. and 0% relative humidity, and the resulting solid was analysed by XRPD.

As for `COc1cc2c(cc1OC)[C@H]1C[C@@H](OC(=O)[C@@H](N)C(C)C)[C@H](CC(C)C)CN1CC2` [Valbenazine], the “Abnormal Involuntary Movement Score” value in data set [1] is “significant improvement”. The “improvement scored with AIMS” value in data set [2] (Valbenazine 50 mg/day) is “did not show any significant signs of improvement”. In addition, the “reduction of symptoms (AIMS)” value in [2] (Valbenazine 100 mg/day) is listed as “some reduction of symptoms”.
A word on the solubility (thermodynamic): it is solubility found after equilibrating the solid with the medium. In the case of `COc1cc2c(cc1OC)[C@H]1C[C@@H](O)[C@H](CC(C)C)CN1CC2.Cl` [HCl salt form A, (+)-α-dihydrotetrabenazine hydrochloride], the TGA weight loss result in data set [3] was “No weight loss”. Besides, in data set [4], the “equilibrium solubility in water” value is 203 mg/mL and the thermodynamic solubility is 203 mg/mL. Moreover, in data set [5], the polymorphism result is on record as “undesirable polymorphism”. Further, the “crystalline form after stirring in slurry (XRPD)” value in [5] (aqueous slurry) is on record as “conversion to a different (by XRPD) crystalline form”.
With `Cc1nc2n(c(=O)c1CCN1CCC(c3noc4cc(F)ccc34)CC1)CCCC2` [risperidone, reference compound], in the data set with amphetamine-induced rats (Study 1, 1 mg/kg), the “total distance travelled compared to vehicle-amphetamine group” value was “lower locomotor activity” and the “total stereotypic behaviour compared to vehicle-amphetamine group” value is reported as “significantly different; also recorded: reduced stereotypic behaviour”. In the data set on amphetamine-induced rats (Study 2, 1 mg/kg), the “total distance travelled compared to vehicle-amphetamine group” value was “lower locomotor activity” and the “total stereotypic behaviour compared to vehicle-amphetamine group” value is on record as “significantly different; also recorded: reduced stereotypic behaviour”. Further, in [6], the “total movement versus vehicle” value is recorded as “reduced total movement” and the “total stereotypic behaviour versus vehicle” value was “reduced total stereotypic behaviour”.
As for α-dihydrotetrabenazine, in data set [7], the “higher affinity than the β-isomer” value is listed as 3- to 4 fold.
As for `COc1cc2c(cc1OC)[C@H]1C[C@@H](O)[C@H](CC(C)C)CN1CC2.O=S(=O)(O)c1ccccc1` [benzenesulphonate salt], the TGA weight loss result in data set [3] is “No weight loss”. Besides, the thermal stability entry in [3] (from DSC and TGA) was “good thermal stability”. The “equilibrium solubility in water” value in data set [4] (water, measured by HPLC) was 2.20 mg/mL. Moreover, the moisture uptake in [8] (60% relative humidity) is on record as 0.2 wt %; in [8] (90% relative humidity), 1.7 wt %. The hygroscopicity entry in data set [8] (gravimetric moisture-sorption) is “slightly hygroscopic”. Also, in data set [5], the polymorphism result is “no apparent polymorphism”. For the same compound, in data set [5] (water, ethanol and ethyl acetate slurry), the “crystalline form after stirring in slurry (XRPD)” value is reported as “remained unchanged”.
